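1) Cells in 96-well plates. 2) Compound, 48 h, 5 concentrations. 3) Linear interpolation between surrounding doses. 4) Unreached endpoint = highest concentration. GI50 = concentration required for 50% inhibition of growth. TGI: concentration producing complete growth inhibition.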
How the values were obtained:
Assay in all cases: DTP human tumour cell line panel, 48 h
[1] = system: HCT-15 colon
[2] = system: RXF 393 renal
[3] = system: A549 NSCLC
[4] = system: RPMI-8226 leukemia
[5] = system: MDA-MB-231 breast
[6] = system: PC-3 prostate
[7] = system: HOP-92 NSCLC
[8] = system: TK-10 renal
[9] = system: CAKI-1 renal
[10] = system: MDA-MB-468 breast
[11] = system: UACC-257 melanoma
[12] = system: HL-60(TB) leukemia
[13] = system: 786-0 renal
[14] = system: HT29 colon
[15] = system: LOX IMVI melanoma
[16] = system: SR leukemia
[17] = system: NCI-H226 lung
[18] = system: SF-539 CNS
[19] = system: SK-MEL-2 melanoma
[20] = system: MALME-3M melanoma
[21] = system: SNB-19 CNS
[22] = system: ACHN renal
[23] = system: NCI-H23 lung
[24] = system: T-47D breast
[25] = system: CCRF-CEM leukemia
[26] = system: SNB-75 CNS
[27] = system: HOP-62 NSCLC
[28] = system: SK-OV-3 ovarian
[29] = system: UACC-62 melanoma
[30] = system: MOLT-4 leukemia

SMILES: O=c1[nH]c2ccccc2cc1CSc1ccc(Nc2nccc(-c3ccc(C(F)(F)F)cc3)n2)cc1
- TGI [1]: 69.7 µM
- GI50 [2]: 2.67 µM
- TGI [2]: 13 µM
- GI50 [3]: 2.12 µM
- TGI [3]: 10.1 µM
- GI50 [4]: 61.6 µM
- TGI [4]: > 100 µM
- GI50 [5]: 1.66 µM
- TGI [5]: 9.04 µM
- GI50 [6]: 6.77 µM
- TGI [6]: 61.5 µM
- GI50 [7]: 2.32 µM
- TGI [7]: 15.2 µM
- GI50 [8]: 1.6 µM
- TGI [8]: 3.97 µM
- GI50 [9]: 1.66 µM
- TGI [9]: 7.13 µM
- GI50 [10]: 3.33 µM
- TGI [10]: 18.2 µM
- GI50 [11]: 29.2 µM
- TGI [11]: > 100 µM
- GI50 [12]: > 100 µM
- TGI [12]: > 100 µM
- GI50 [13]: 1.53 µM
- TGI [13]: 3.29 µM
- GI50 [14]: 3.46 µM
- TGI [14]: > 100 µM
- GI50 [15]: 3.63 µM
- TGI [15]: 19.5 µM
- GI50 [16]: > 100 µM
- TGI [16]: > 100 µM
- GI50 [17]: 1.52 µM
- TGI [17]: 3.8 µM
- GI50 [18]: 2.7 µM
- TGI [18]: 10.9 µM
- GI50 [19]: 18.7 µM
- TGI [19]: 39.5 µM
- GI50 [20]: 6.51 µM
- TGI [20]: 22.6 µM
- GI50 [21]: 2.32 µM
- TGI [21]: 10.3 µM
- GI50 [22]: 1.85 µM
- TGI [22]: 10.8 µM
- GI50 [23]: 4 µM
- TGI [23]: 18.8 µM
- GI50 [24]: 1.84 µM
- TGI [24]: 54.3 µM
- GI50 [25]: 3.51 µM
- TGI [25]: > 100 µM
- GI50 [26]: 0.714 µM
- TGI [26]: 3.88 µM
- GI50 [27]: 1.81 µM
- TGI [27]: 4.45 µM
- GI50 [28]: 15.6 µM
- TGI [28]: 30.6 µM
- GI50 [29]: 15.4 µM
- TGI [29]: 33 µM
- GI50 [30]: 4.83 µM
- TGI [30]: > 100 µM
